Test results taken from article doi:10.1101/2020.06.11.145995v1 (biorxiv, 2020).
Read-outs that look alike come from different tables or passages of the source.

Key:
Test in all cases: biochemical
KIT = KIT (Homo sapiens, UniProt P10721)
BIKE = BIKE (Homo sapiens, UniProt Q9NSY1)
MLK3 = MLK3 (Homo sapiens, UniProt Q16584)
CTK = CTK (Homo sapiens, UniProt P42679)
MAP4K3 = MAP4K3 (Homo sapiens, UniProt Q8IVH8)
CDKL1 = CDKL1 (Homo sapiens, UniProt Q00532)
MAP3K1 = MAP3K1 (Homo sapiens, UniProt Q13233)
CSF1R = CSF1R (Homo sapiens, UniProt P07333)
CDK8 = CDK8 (Homo sapiens, UniProt P49336)
ANKK1 = ANKK1 (Homo sapiens, UniProt Q8NFD2)
EGFR(G719C) = EGFR(G719C) (Homo sapiens, UniProt P00533, G719C)
ERN1 = ERN1 (Homo sapiens, UniProt O75460)
AURKC = AURKC (Homo sapiens, UniProt Q9UQB9)
MKNK2 = MKNK2 (Homo sapiens, UniProt Q9HBH9)
FGFR1 = FGFR1 (Homo sapiens, UniProt P11362)
MAPKAPK2 = MAPKAPK2 (Homo sapiens, UniProt P49137)
MAK = MAK (Homo sapiens, UniProt P20794)
FLT3(D835Y) = FLT3(D835Y) (Homo sapiens, UniProt P36888, D835Y)
EGFR(L861Q) = EGFR(L861Q) (Homo sapiens, UniProt P00533, L861Q)
HCK = HCK (Homo sapiens, UniProt P08631)
LYN = LYN (Homo sapiens, UniProt P07948)
DDR2 = DDR2 (Homo sapiens, UniProt Q16832)
JNK3 = JNK3 (Homo sapiens, UniProt P53779)
DAPK2 = DAPK2 (Homo sapiens, UniProt Q9UIK4)
CDC2L5 = CDC2L5 (Homo sapiens, UniProt Q14004)
BMPR2 = BMPR2 (Homo sapiens, UniProt Q13873)
HIPK2 = HIPK2 (Homo sapiens, UniProt Q9H2X6)
IKK-epsilon = IKK-epsilon (Homo sapiens, UniProt Q14164)
DMPK2 = DMPK2 (Homo sapiens, UniProt Q6DT37)
MYO3A = MYO3A (Homo sapiens, UniProt Q8NEV4)
[1] = read-out: CPT-1-70-1 (1uM) % control
[2] = read-out: HYJ-2-002-1 (1uM) % control

EGFR(L861Q), sequence (P00533 whole entry L861Q): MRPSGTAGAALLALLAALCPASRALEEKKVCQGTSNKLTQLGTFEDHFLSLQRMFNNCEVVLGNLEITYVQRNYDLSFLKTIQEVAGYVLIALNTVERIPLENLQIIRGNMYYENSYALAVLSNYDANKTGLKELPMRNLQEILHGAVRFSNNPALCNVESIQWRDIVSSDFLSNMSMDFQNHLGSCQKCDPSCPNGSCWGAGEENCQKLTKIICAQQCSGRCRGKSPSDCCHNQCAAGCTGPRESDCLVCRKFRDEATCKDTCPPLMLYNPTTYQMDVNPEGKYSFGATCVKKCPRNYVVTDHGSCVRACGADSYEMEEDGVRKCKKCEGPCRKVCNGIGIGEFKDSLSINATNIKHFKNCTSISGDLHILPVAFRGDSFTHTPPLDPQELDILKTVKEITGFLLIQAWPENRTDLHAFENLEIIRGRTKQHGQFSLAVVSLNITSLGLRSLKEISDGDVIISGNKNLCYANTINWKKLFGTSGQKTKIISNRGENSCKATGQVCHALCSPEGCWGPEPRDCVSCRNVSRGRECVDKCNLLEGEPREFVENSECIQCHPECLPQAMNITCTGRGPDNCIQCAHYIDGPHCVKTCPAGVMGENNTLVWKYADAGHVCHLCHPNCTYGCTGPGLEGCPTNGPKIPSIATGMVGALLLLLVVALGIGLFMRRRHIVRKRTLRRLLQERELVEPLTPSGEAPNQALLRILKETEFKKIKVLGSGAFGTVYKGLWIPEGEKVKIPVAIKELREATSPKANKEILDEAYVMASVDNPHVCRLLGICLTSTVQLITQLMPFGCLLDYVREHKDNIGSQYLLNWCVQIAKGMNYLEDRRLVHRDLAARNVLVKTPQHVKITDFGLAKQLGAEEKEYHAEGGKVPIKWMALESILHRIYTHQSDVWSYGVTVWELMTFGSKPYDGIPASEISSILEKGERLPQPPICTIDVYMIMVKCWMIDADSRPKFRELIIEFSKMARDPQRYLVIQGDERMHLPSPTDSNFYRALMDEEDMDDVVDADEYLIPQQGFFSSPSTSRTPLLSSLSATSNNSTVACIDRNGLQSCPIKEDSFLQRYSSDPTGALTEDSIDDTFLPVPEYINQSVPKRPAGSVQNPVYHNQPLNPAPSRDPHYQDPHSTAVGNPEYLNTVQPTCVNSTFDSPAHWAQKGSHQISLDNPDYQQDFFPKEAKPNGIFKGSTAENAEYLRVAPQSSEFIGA
IKK-epsilon, sequence (Q14164 whole entry): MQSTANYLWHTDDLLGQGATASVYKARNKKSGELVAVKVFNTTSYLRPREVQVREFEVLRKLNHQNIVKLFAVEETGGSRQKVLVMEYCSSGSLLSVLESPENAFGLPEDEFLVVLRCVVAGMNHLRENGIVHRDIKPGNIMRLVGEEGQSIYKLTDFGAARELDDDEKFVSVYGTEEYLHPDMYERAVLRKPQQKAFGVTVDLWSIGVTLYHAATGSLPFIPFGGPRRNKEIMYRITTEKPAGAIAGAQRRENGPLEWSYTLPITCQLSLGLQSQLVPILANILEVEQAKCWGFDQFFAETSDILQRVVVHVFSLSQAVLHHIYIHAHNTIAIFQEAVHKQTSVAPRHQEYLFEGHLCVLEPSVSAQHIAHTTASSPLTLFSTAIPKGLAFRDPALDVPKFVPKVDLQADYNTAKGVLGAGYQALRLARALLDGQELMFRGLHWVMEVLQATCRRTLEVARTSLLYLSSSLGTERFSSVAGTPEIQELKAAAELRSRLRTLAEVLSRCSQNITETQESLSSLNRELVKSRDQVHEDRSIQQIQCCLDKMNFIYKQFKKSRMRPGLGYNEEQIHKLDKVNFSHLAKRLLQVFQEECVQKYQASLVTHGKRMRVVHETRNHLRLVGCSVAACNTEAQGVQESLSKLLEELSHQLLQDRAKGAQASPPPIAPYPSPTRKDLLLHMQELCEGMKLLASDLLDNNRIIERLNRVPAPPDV
DDR2, sequence (Q16832 whole entry): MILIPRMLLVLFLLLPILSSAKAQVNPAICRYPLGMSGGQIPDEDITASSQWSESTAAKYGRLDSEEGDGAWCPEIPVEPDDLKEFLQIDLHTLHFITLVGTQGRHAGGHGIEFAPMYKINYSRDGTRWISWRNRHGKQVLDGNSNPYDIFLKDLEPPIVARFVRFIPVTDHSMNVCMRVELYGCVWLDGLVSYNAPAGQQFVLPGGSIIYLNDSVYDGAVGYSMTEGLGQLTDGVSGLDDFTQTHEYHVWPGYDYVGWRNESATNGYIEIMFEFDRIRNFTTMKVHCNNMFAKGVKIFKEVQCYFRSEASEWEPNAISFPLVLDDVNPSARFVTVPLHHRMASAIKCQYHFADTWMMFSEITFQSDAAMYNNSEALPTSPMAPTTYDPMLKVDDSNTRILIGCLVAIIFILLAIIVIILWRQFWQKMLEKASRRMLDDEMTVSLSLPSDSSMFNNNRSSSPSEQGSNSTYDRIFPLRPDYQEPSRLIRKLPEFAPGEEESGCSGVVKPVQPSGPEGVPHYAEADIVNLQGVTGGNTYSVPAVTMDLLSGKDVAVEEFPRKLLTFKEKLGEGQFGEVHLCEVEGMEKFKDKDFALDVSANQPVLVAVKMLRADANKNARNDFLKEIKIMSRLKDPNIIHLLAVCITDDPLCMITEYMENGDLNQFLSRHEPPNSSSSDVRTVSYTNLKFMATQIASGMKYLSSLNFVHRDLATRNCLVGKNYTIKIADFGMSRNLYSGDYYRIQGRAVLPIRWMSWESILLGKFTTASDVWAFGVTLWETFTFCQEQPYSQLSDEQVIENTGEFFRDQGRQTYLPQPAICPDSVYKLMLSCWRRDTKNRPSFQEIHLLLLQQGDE
DMPK2, sequence (Q6DT37 whole entry): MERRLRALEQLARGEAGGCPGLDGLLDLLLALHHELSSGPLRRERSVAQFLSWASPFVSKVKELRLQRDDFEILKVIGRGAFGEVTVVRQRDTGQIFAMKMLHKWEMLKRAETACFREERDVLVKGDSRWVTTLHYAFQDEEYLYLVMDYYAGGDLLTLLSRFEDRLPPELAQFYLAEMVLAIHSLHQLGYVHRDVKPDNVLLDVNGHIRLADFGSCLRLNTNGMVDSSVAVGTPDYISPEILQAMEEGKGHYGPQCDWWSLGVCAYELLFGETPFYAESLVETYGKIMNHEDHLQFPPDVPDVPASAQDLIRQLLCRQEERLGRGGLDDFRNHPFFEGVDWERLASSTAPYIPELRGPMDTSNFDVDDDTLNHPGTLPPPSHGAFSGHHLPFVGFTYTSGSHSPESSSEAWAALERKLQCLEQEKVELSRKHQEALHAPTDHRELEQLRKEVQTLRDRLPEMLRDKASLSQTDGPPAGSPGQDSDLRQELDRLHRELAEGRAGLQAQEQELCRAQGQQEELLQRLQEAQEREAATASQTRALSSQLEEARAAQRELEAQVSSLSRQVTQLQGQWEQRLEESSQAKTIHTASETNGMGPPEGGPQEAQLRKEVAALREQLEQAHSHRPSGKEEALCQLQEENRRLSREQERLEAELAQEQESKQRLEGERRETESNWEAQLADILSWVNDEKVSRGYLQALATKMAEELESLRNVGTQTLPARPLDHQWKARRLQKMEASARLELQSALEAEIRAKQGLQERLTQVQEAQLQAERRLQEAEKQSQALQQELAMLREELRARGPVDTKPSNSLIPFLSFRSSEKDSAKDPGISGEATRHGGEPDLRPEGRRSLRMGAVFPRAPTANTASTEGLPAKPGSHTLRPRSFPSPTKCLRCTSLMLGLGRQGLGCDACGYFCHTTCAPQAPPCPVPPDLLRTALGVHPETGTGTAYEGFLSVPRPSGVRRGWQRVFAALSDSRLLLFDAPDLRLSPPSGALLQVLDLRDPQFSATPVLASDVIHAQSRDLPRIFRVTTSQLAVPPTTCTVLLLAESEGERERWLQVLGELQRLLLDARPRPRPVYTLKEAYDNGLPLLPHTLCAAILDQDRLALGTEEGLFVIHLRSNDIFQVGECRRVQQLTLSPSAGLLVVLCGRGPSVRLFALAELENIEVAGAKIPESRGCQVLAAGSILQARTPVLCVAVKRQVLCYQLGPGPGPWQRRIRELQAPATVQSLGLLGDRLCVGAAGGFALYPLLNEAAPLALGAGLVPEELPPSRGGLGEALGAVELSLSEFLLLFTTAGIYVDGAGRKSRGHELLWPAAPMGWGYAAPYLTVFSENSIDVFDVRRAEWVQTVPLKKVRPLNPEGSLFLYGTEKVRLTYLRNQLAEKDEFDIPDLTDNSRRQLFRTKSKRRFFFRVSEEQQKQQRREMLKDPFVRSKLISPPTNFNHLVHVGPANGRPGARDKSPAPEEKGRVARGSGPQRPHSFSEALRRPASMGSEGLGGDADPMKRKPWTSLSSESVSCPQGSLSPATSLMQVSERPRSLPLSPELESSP
CDK8, sequence (P49336 whole entry): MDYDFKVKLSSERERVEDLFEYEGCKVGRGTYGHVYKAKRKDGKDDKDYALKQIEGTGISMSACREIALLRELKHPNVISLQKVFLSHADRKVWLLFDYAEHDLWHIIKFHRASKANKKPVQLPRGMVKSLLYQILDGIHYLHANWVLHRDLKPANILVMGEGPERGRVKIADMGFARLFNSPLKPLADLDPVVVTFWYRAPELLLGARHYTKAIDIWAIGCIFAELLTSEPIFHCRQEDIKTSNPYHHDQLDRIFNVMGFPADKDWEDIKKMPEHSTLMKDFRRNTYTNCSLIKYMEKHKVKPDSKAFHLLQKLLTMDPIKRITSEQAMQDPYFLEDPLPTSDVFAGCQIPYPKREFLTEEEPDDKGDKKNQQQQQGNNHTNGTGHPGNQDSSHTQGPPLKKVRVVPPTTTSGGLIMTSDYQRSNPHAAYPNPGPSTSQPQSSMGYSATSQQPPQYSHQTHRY
AURKC, sequence (Q9UQB9 whole entry): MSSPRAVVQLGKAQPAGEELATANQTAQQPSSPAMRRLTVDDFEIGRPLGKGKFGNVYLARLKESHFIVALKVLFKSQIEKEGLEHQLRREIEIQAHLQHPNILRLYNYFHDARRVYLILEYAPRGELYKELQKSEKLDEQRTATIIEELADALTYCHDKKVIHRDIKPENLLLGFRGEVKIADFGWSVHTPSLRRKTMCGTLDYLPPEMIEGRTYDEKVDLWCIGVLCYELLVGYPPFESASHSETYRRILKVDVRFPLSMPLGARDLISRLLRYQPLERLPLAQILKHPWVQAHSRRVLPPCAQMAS

CN1CCN(c2ccc(Nc3nc(Oc4ccc(NC(=O)CCl)cc4)c4cc[nH]c4n3)cc2)CC1 [CPT1-70-1]
remaining activity at 1 µM (KIT; [1]): 20%
remaining activity at 1 µM (BIKE; [1]): 18%
remaining activity at 1 µM (MLK3; [1]): 91%
remaining activity at 1 µM (CTK; [1]): 100%
remaining activity at 1 µM (MAP4K3; [1]): 23%
remaining activity at 1 µM (CDKL1; [1]): 66%
remaining activity at 1 µM (MAP3K1; [1]): 100%
remaining activity at 1 µM (CSF1R; [1]): 12%
remaining activity at 1 µM (CDK8; [1]): 100%
remaining activity at 1 µM (ANKK1; [1]): 93%
remaining activity at 1 µM (EGFR(G719C); [1]): 8%
remaining activity at 1 µM (ERN1; [1]): 69%
remaining activity at 1 µM (AURKC; [1]): 51%
remaining activity at 1 µM (MKNK2; [1]): 100%
remaining activity at 1 µM (FGFR1; [1]): 2.2%
remaining activity at 1 µM (MAPKAPK2; [1]): 100%
remaining activity at 1 µM (MAK; [1]): 100%
remaining activity at 1 µM (FLT3(D835Y); [1]): 0.35%
remaining activity at 1 µM (EGFR(L861Q); [1]): 18%
remaining activity at 1 µM (HCK; [1]): 85%
remaining activity at 1 µM (LYN; [1]): 49%
remaining activity at 1 µM (DDR2; [1]): 100%
remaining activity at 1 µM (JNK3; [1]): 4.6%
remaining activity at 1 µM (DAPK2; [1]): 88%
remaining activity at 1 µM (CDC2L5; [1]): 91%
remaining activity at 1 µM (BMPR2; [1]): 100%
remaining activity at 1 µM (HIPK2; [1]): 90%
remaining activity at 1 µM (IKK-epsilon; [1]): 100%
remaining activity at 1 µM (DMPK2; [1]): 67%
remaining activity at 1 µM (MYO3A; [1]): 88%

CCN1CCN(Cc2ccc(NC(=O)c3ccc(C)c(CCc4cnc5[nH]ccc5c4OC)c3)cc2C(F)(F)F)CC1 [HYJ-2-002-1]
remaining activity at 1 µM (KIT; [2]): 0%
remaining activity at 1 µM (BIKE; [2]): 96%
remaining activity at 1 µM (MLK3; [2]): 53%
remaining activity at 1 µM (CTK; [2]): 91%
remaining activity at 1 µM (MAP4K3; [2]): 40%
remaining activity at 1 µM (CDKL1; [2]): 94%
remaining activity at 1 µM (MAP3K1; [2]): 83%
remaining activity at 1 µM (CSF1R; [2]): 0.45%
remaining activity at 1 µM (CDK8; [2]): 9.2%
remaining activity at 1 µM (ANKK1; [2]): 9.4%
remaining activity at 1 µM (EGFR(G719C); [2]): 0.75%
remaining activity at 1 µM (ERN1; [2]): 100%
remaining activity at 1 µM (AURKC; [2]): 80%
remaining activity at 1 µM (MKNK2; [2]): 7%
remaining activity at 1 µM (FGFR1; [2]): 1.2%
remaining activity at 1 µM (MAPKAPK2; [2]): 100%
remaining activity at 1 µM (MAK; [2]): 100%
remaining activity at 1 µM (FLT3(D835Y); [2]): 38%
remaining activity at 1 µM (EGFR(L861Q); [2]): 0.85%
remaining activity at 1 µM (HCK; [2]): 0.55%
remaining activity at 1 µM (LYN; [2]): 0.15%
remaining activity at 1 µM (DDR2; [2]): 0.05%
remaining activity at 1 µM (JNK3; [2]): 75%
remaining activity at 1 µM (DAPK2; [2]): 92%
remaining activity at 1 µM (CDC2L5; [2]): 100%
remaining activity at 1 µM (BMPR2; [2]): 98%
remaining activity at 1 µM (HIPK2; [2]): 84%
remaining activity at 1 µM (IKK-epsilon; [2]): 94%
remaining activity at 1 µM (DMPK2; [2]): 92%
remaining activity at 1 µM (MYO3A; [2]): 59%
